Test results taken from the supplement of paper PMC10307832.

Experiments:
Assay in all cases: relative viability (nuclei count vs DMSO), 5 days (fraction); higher = more cells survive
Metformin + Lapatinib = compound: CN(C)C(=N)NC(=N)N [Metformin] + CS(=O)(=O)CCNCc1ccc(-c2ccc3ncnc(Nc4ccc(OCc5cccc(F)c5)c(Cl)c4)c3c2)o1 [Lapatinib] (partner 2 µM)
Outline: (§1)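 Dosing by pin tool came one day after lung cancer cell lines were seeded in 1536-well plates, using either one drug or a fixed anchor-drug dose plus five library-drug doses (not always all listed) in √10 steps. After 5 days, nuclei were counted on 4× images. Relative viability is treated-well nuclei count divided by vehicle-well nuclei count, and values are medians of duplicate plates.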

Apatinib + Phenformin = compound: N#CC1(c2ccc(NC(=O)c3cccnc3NCc3ccncc3)cc2)CCCC1 [Apatinib] + N=C(N)NC(=N)NCCc1ccccc1 [Phenformin] (partner 250 µM)
Outline: as §1

Apatinib + Luminespib = compound: N#CC1(c2ccc(NC(=O)c3cccnc3NCc3ccncc3)cc2)CCCC1 [Apatinib] + CCNC(=O)c1noc(-c2cc(C(C)C)c(O)cc2O)c1-c1ccc(CN2CCOCC2)cc1 [Luminespib] (partner 0.01 µM)
Outline: as §1

Apatinib + Palbociclib = compound: N#CC1(c2ccc(NC(=O)c3cccnc3NCc3ccncc3)cc2)CCCC1 [Apatinib] + CC(=O)c1c(C)c2cnc(Nc3ccc(N4CCNCC4)cn3)nc2n(C2CCCC2)c1=O [Palbociclib] (partner 0.5 µM)
Outline: as §1

Cell Line | relative viability (Metformin + Lapatinib; first compound 10 µM) | relative viability (Metformin + Lapatinib; first compound 31.62 µM) | relative viability (Metformin + Lapatinib; first compound 100 µM) | relative viability (Metformin + Lapatinib; first compound 316.23 µM) | relative viability (Metformin + Lapatinib; first compound 1000 µM) | relative viability (Apatinib + Phenformin; first compound 0.08 µM) | relative viability (Apatinib + Phenformin; first compound 0.253 µM) | relative viability (Apatinib + Phenformin; first compound 0.8 µM) | relative viability (Apatinib + Phenformin; first compound 2.53 µM) | relative viability (Apatinib + Phenformin; first compound 8 µM) | relative viability (Apatinib + Luminespib; first compound 0.08 µM) | relative viability (Apatinib + Luminespib; first compound 0.253 µM) | relative viability (Apatinib + Luminespib; first compound 0.8 µM) | relative viability (Apatinib + Luminespib; first compound 2.53 µM) | relative viability (Apatinib + Luminespib; first compound 8 µM) | relative viability (Apatinib + Palbociclib; first compound 0.08 µM) | relative viability (Apatinib + Palbociclib; first compound 0.253 µM) | relative viability (Apatinib + Palbociclib; first compound 0.8 µM) | relative viability (Apatinib + Palbociclib; first compound 2.53 µM) | relative viability (Apatinib + Palbociclib; first compound 8 µM)
NCI-H1993 | 0.761 | 0.823 | 0.814 | 0.741 | 0.804 | 0.533 | 0.555 | 0.528 | 0.485 | 0.567 | 0.885 | 0.906 | 0.886 | 0.757 | 0.673 | 0.783 | 0.736 | 0.597 | 0.528 | 0.616
ABC-1 | 1.53 | 1.12 | 1.4 | 1.59 | 0.851 | – | 0.264 | 0.234 | 0.217 | 0.249 | – | 0.907 | 0.646 | 0.554 | 0.553 | – | 1.02 | 0.663 | 0.531 | 0.583
NCI-H1651 | 0.877 | 0.81 | 0.822 | 0.749 | 0.865 | 0.319 | 0.322 | 0.309 | 0.288 | 0.316 | 0.981 | 1.12 | 0.855 | 0.579 | 0.652 | 0.516 | 0.522 | 0.489 | 0.514 | 0.459
NCI-H838 | 1.13 | 0.987 | 0.918 | 0.951 | 0.888 | 0.716 | 0.686 | 0.521 | 0.507 | 0.518 | 0.332 | 0.286 | 0.388 | 0.282 | 0.249 | 0.229 | 0.261 | 0.206 | 0.215 | 0.217
NCI-H1755 | 0.763 | 0.956 | 1.02 | 0.929 | 0.99 | 0.626 | 0.611 | 0.628 | 0.609 | 0.559 | 0.295 | 0.695 | 0.524 | 0.491 | 0.479 | 0.462 | 0.464 | 0.434 | 0.404 | 0.422
NCI-H1734 | 1.03 | 1.04 | 1.09 | 0.991 | 1.14 | 0.401 | 0.481 | 0.381 | 0.342 | 0.353 | 0.19 | 0.187 | 0.275 | 0.165 | 0.193 | 0.375 | 0.364 | 0.334 | 0.318 | 0.312
NCI-H2009 | 0.574 | 0.98 | 1.01 | 0.889 | 0.991 | 0.494 | 0.497 | 0.382 | 0.264 | 0.219 | 1.1 | 1.09 | 0.988 | 0.992 | 0.86 | 0.423 | 0.206 | 0.227 | 0.203 | 0.167
SW 1573 | 1.1 | 1.09 | 1.09 | 1.03 | 1.18 | 0.485 | 0.426 | 0.376 | 0.397 | 0.387 | 0.318 | 0.184 | 0.183 | 0.162 | 0.195 | 0.4 | 0.518 | 0.433 | 0.379 | 0.252
HARA | 1 | 1 | 1.14 | 1 | 0.957 | 0.424 | 0.455 | 0.391 | 0.28 | 0.298 | 0.928 | 0.875 | 0.419 | 0.6 | 0.678 | 0.291 | 0.262 | 0.303 | 0.271 | 0.272
PC-3 [JPC-3] | 0.453 | 0.46 | 0.441 | 0.435 | 0.447 | 0.471 | 0.468 | 0.474 | 0.448 | 0.46 | 0.712 | 0.701 | 0.711 | 0.622 | 0.485 | – | 0.555 | 0.557 | 0.516 | 0.53
NCI-H1666 | 0.57 | 0.557 | 0.601 | 0.535 | 0.67 | 0.567 | 0.572 | 0.6 | 0.53 | 0.564 | 0.948 | 1.07 | 1.04 | 0.983 | 1.05 | 0.675 | 0.638 | 0.655 | 0.629 | 0.626
NCI-H520 | 0.849 | 1.07 | 0.948 | 0.768 | 0.892 | 0.661 | 0.567 | 0.56 | 0.391 | 0.391 | 0.218 | 0.245 | 0.223 | 0.216 | 0.207 | 0.227 | 0.238 | 0.25 | 0.197 | 0.214
NCI-H2023 | – | 0.975 | 0.74 | – | 0.764 | 0.384 | 0.481 | 0.404 | 0.329 | 0.301 | 0.981 | 0.917 | 0.708 | 0.507 | 0.649 | 0.381 | 0.402 | 0.354 | 0.376 | 0.307
LXF-289 | 0.812 | 0.879 | 0.879 | 0.843 | 0.887 | 0.543 | 0.527 | 0.519 | 0.496 | 0.468 | 0.644 | 0.857 | 0.633 | 0.652 | 0.743 | 0.594 | 0.593 | 0.567 | 0.568 | 0.562
EPLC-272H | 1.22 | 1.09 | 1.09 | 1.15 | 1.05 | 0.325 | – | 0.318 | 0.333 | 0.265 | 0.898 | – | 0.92 | 0.329 | 0.201 | 0.284 | 0.341 | 0.359 | 0.336 | 0.313
NCI-H2087 | 0.597 | 0.902 | 1.02 | 1.06 | 0.895 | 0.499 | 0.46 | 0.424 | 0.339 | 0.374 | 0.186 | 0.183 | 0.185 | 0.135 | 0.149 | 0.231 | 0.256 | 0.248 | 0.266 | 0.178
NCI-H647 | 1.04 | 1.14 | 0.933 | 1.04 | 1.1 | 0.561 | 0.64 | 0.427 | 0.544 | 0.319 | 0.235 | 0.144 | 0.267 | 0.136 | 0.23 | 0.516 | 0.451 | 0.336 | 0.384 | 0.303
